Experimental data: article PMC4075989 (Biochemistry, 2014)
Values belong to the compound of their own block, whether it stands above or below them. Where a SMILES comes first, the peptide text is derived from it. [ ]: non-standard residue; d: D form. 2Nal = N[C@@H](Cc1ccc2ccccc2c1)C(=O)O

Key:
[1] = system: glucocorticoid receptor (C638G)-GFP fusion (GR-GFP) in HeLa cells; experiment: GR-GFP translocation assay
Serum stability test = format: in vitro ADME; conditions: human, 25% human serum (supernatant after centrifugation)
[2] = system: HEK293, MCF-7, A549, H1650, and H1299; experiment: MTT cytotoxicity assay; format: cell-based, human; conditions: triplicates
mammalian cells = conditions: cited from earlier work

Structure (SMILES): C[C@@H]1C[C@H]2[C@@H]3CCC4=CC(=O)C=C[C@]4(C)[C@@]3(F)[C@@H](O)C[C@]2(C)[C@@]1(O)C(=O)CO [Dex, dexamethasone]
effect of Rab5(Q79L) overexpression on TR [1]: no effect

Structure (SMILES): N=C(N)NCCC[C@H](NC(=O)[C@H](CCCNC(=N)N)NC(=O)[C@H](CCCNC(=N)N)NC(=O)[C@H](CCC(N)=O)NC(=O)[C@H](CCCNC(=N)N)NC(=O)[C@H](CCCNC(=N)N)NC(=O)[C@H](CCCCN)NC(=O)[C@H](CCCCN)NC(=O)[C@H](CCCNC(=N)N)NC(=O)CNC(=O)[C@@H](N)Cc1ccc(O)cc1)C(=O)O [Tat]
half-life (Serum stability test): ~30 min

remaining at 24 h, 5 µM (Serum stability test): > 70%
Structure (SMILES): N=C(N)NCCC[C@@H]1NC(=O)[C@H](CCCNC(=N)N)NC(=O)[C@H](CCCNC(=N)N)NC(=O)[C@H](Cc2ccc3ccccc3c2)NC(=O)[C@H](Cc2ccccc2)NC(=O)[C@H](CCC(N)=O)NC(=O)[C@H](CCCNC(=N)N)NC1=O [cFΦR4] (cyclo(F[2Nal]RRRRQ))
growth inhibition after 72 h ([2]; 50 μM, 72 h): up to 20% | growth inhibition after 24 or 48 h ([2]; up to 50 μM, any of five human cell lines): no significant growth inhibition | efficiency of entering the cytoplasm and nucleus relative to nonaarginine (R9) (mammalian cells): 2–5 fold

half-life (Serum stability test): ~30 min
Structure (SMILES): N=C(N)NCCC[C@H](NC(=O)[C@H](CCCNC(=N)N)NC(=O)[C@H](CCCNC(=N)N)NC(=O)[C@H](CCCNC(=N)N)NC(=O)[C@H](CCCNC(=N)N)NC(=O)[C@H](CCCNC(=N)N)NC(=O)[C@H](CCCNC(=N)N)NC(=O)[C@H](CCCNC(=N)N)NC(=O)[C@@H](N)CCCNC(=N)N)C(=O)O [R9]
